Laboratory results: patent publication US11357229B2, “Composition, uses and preparation process thereof, as well as method to ensure high corn crop yield” (priority 2011, dated 2022)

How the values were obtained:
Type in all cases: in vivo, Zea mays
corn [1] = assay: Ethephon applied to corn at stage V8, Nova Mutum; methomyl and pyraclostrobin+epoxyconazole added in all treatments; details: V8, 5 g ha^−1 a.i.
Procedure: Example 1—Effect of Growth Regulator Ethephon Applied to Corn at the Stage of Development V8
(§1) In the moment of the application, the insecticide methomyl (215 g ha^−1 a.i.) and the fungicide pyraclostrobin+epoxyconazole (99.75+37.5 g ha^−1 a.i.) were added in all treatments, including the control.

corn [2] = assay: Ethephon applied to corn at stage V6, Nova Mutum; chlorantraniliprole and cyproconazole+azoxystrobin added in all treatments; details: V6, 5 g ha^−1 a.i.
Procedure: Example 2—Effect of Growth Regulator Ethephon Applied to Corn at the Stage of Development V6
(§2) In the moment of the application, the insecticide chlorantraniliprole (25 g ha^−1 a.i.) and the fungicide cyproconazole+azoxystrobin (24+60 g ha^−1 a.i.) were added in all treatments, including the control.

corn [3] = assay: BF 428-5 applied to corn at stage V8, Nova Mutum; methomyl and pyraclostrobin+epoxyconazole added in all treatments; details: for Increased Yield: 100,000 plants/ha vs control at normal density
Procedure: Example 5—Effect of Growth Regulator BF 428-5 Applied to Corn at the Stage of Development V8
as §1

corn [4] = assay: BF 428-5 applied to corn at stage V6, Nova Mutum; chlorantraniliprole and cyproconazole+azoxystrobin added in all treatments; details: for Height (shoot length): 30 DAA; for Increased Yield: 100,000 plants/ha vs control at normal density
Procedure: Example 6—Effect of Growth Regulator BF 428-5 Applied to Corn at the Stage of Development V6
as §2

CSC(=O)c1cccc2nnsc12 [Acybenzolar-S-methyl, acybenzolar-S-methyl]
Ear Diameter (corn [1]): 53.7 mm | Ear Length (corn [1]): 26.5 cm | Yield (corn [1]): 4815.6 kg/ha | Height (shoot length) (corn [1]; 30 DAA): 206.8 cm | Population of corn plants 60,000 plants/ha, kg/corn plant (corn [1]; 60,000 plants/ha): 0.080 kg/corn plant | Ear Diameter (corn [2]): 34.7 mm | Ear Length (corn [2]): 21.9 cm | Yield (corn [2]): 2662.2 kg/ha | Height (shoot length) (corn [2]; 30 DAA): 195.2 cm | Population of corn plants 60,000 plants/ha, kg/corn plant (corn [2]; 60,000 plants/ha): 0.044 kg/corn plant

C[N+](C)(C)CCCl [BF 428-05, chlormequat chloride]
effects on the corn plant (corn [3]; V8): reduction in shoot length, increased formation of adventitious roots, strengthening of the stem, strengthening of the root system, increased ventilation in the culture, proper development of male and female inflorescences | effect on length and diameter of ears of corn (corn [3]; V8 (Table 9)): does not reduce | yield reduction (corn [3]; V8 (Table 9)): no yield reduction | shoot length (corn [3]; V8, 30 DAA, all treatments with BF 428-5 (Table 9)): less than or equal to 218.8 cm | Ear Diameter (corn [3]; V8, 42.5 g ha^−1 a.i.): 54.3 mm | Ear Length (corn [3]; V8, 42.5 g ha^−1 a.i.): 27.8 cm | Yield (corn [3]; V8, 42.5 g ha^−1 a.i.): 5762.2 kg/ha | Height (shoot length) (corn [3]; V8, 42.5 g ha^−1 a.i., 30 DAA): 214.6 cm | Population of corn plants 60,000 plants/ha, kg/corn plant (corn [3]; V8, 42.5 g ha^−1 a.i.): 0.096 kg/corn plant | Population of corn plants 100,000 plants/ha, kg/corn plant (corn [3]; V8, 42.5 g ha^−1 a.i.): 0.096 kg/corn plant | Yield estimates 100,000 plants/ha (corn [3]; V8, 42.5 g ha^−1 a.i.): 9603.7 kg/ha | Increased Yield (corn [3]; V8, 42.5 g ha^−1 a.i.): 89.2% | Ear Diameter (corn [3]; V8, 85 g ha^−1 a.i.): 53.9 mm | Ear Length (corn [3]; V8, 85 g ha^−1 a.i.): 27.3 cm | Yield (corn [3]; V8, 85 g ha^−1 a.i.): 4355.6 kg/ha | Height (shoot length) (corn [3]; V8, 85 g ha^−1 a.i., 30 DAA): 218.8 cm | Population of corn plants 60,000 plants/ha, kg/corn plant (corn [3]; V8, 85 g ha^−1 a.i.): 0.073 kg/corn plant | Population of corn plants 100,000 plants/ha, kg/corn plant (corn [3]; V8, 85 g ha^−1 a.i.): 0.073 kg/corn plant | Yield estimates 100,000 plants/ha (corn [3]; V8, 85 g ha^−1 a.i.): 7259.3 kg/ha | Increased Yield (corn [3]; V8, 85 g ha^−1 a.i.): 43.0% | Ear Diameter (corn [3]; V8, 127.5 g ha^−1 a.i.): 54.2 mm | Ear Length (corn [3]; V8, 127.5 g ha^−1 a.i.): 27.2 cm | Yield (corn [3]; V8, 127.5 g ha^−1 a.i.): 4968.9 kg/ha | Height (shoot length) (corn [3]; V8, 127.5 g ha^−1 a.i., 30 DAA): 217.8 cm | Population of corn plants 60,000 plants/ha, kg/corn plant (corn [3]; V8, 127.5 g ha^−1 a.i.): 0.083 kg/corn plant | Population of corn plants 100,000 plants/ha, kg/corn plant (corn [3]; V8, 127.5 g ha^−1 a.i.): 0.083 kg/corn plant | Yield estimates 100,000 plants/ha (corn [3]; V8, 127.5 g ha^−1 a.i.): 8281.5 kg/ha | Increased Yield (corn [3]; V8, 127.5 g ha^−1 a.i.): 63.2% | yield increases (corn [3]; V8, estimation at 100,000 plants per hectare vs control at normal density of sowing (Table 10)): more than 43% | effects on the corn plant (corn [4]; V6): reduction in shoot length, increased formation of adventitious roots, strengthening of the stem, strengthening of the root system, increased ventilation in the culture, proper development of male and female inflorescences | effect on length and diameter of ears of corn (corn [4]; V6 (Table 11)): does not reduce | yield reduction (corn [4]; V6 (Table 11)): no yield reduction | Ear Diameter (corn [4]; V6, 42.5 g ha^−1 a.i.): 38.4 mm | Ear Length (corn [4]; V6, 42.5 g ha^−1 a.i.): 23.9 cm | Yield (corn [4]; V6, 42.5 g ha^−1 a.i.): 3126.7 kg/ha | Height (shoot length) (corn [4]; V6, 42.5 g ha^−1 a.i.): 206.0 cm | Population of corn plants 60,000 plants/ha, kg/corn plant (corn [4]; V6, 42.5 g ha^−1 a.i.): 0.052 kg/corn plant | Population of corn plants 100,000 plants/ha, kg/corn plant (corn [4]; V6, 42.5 g ha^−1 a.i.): 0.052 kg/corn plant | Yield estimates 100,000 plants/ha (corn [4]; V6, 42.5 g ha^−1 a.i.): 5211.2 kg/ha | Increased Yield (corn [4]; V6, 42.5 g ha^−1 a.i.): 80.5% | Ear Diameter (corn [4]; V6, 85 g ha^−1 a.i.): 37.0 mm | Ear Length (corn [4]; V6, 85 g ha^−1 a.i.): 22.9 cm | Yield (corn [4]; V6, 85 g ha^−1 a.i.): 1902.2 kg/ha | Height (shoot length) (corn [4]; V6, 85 g ha^−1 a.i.): 205.8 cm | Population of corn plants 60,000 plants/ha, kg/corn plant (corn [4]; V6, 85 g ha^−1 a.i.): 0.032 kg/corn plant | Population of corn plants 100,000 plants/ha, kg/corn plant (corn [4]; V6, 85 g ha^−1 a.i.): 0.032 kg/corn plant | Yield estimates 100,000 plants/ha (corn [4]; V6, 85 g ha^−1 a.i.): 3170.3 kg/ha | Increased Yield (corn [4]; V6, 85 g ha^−1 a.i.): 9.8% | Ear Diameter (corn [4]; V6, 127.5 g ha^−1 a.i.): 37.9 mm | Ear Length (corn [4]; V6, 127.5 g ha^−1 a.i.): 21.5 cm | Yield (corn [4]; V6, 127.5 g ha^−1 a.i.): 2500.0 kg/ha | Height (shoot length) (corn [4]; V6, 127.5 g ha^−1 a.i.): 200.3 cm | Population of corn plants 60,000 plants/ha, kg/corn plant (corn [4]; V6, 127.5 g ha^−1 a.i.): 0.042 kg/corn plant | Population of corn plants 100,000 plants/ha, kg/corn plant (corn [4]; V6, 127.5 g ha^−1 a.i.): 0.042 kg/corn plant | Yield estimates 100,000 plants/ha (corn [4]; V6, 127.5 g ha^−1 a.i.): 4166.7 kg/ha | Increased Yield (corn [4]; V6, 127.5 g ha^−1 a.i.): 44.3% | yield increases (corn [4]; V6, estimation at 100,000 plants per hectare vs control at normal density of sowing (Table 12)): more than 9.8%
